Laboratory results from the kinase profiling compilation of Christmann-Franck et al. (2016).
One block for each molecule: values may come before it.

Columns and labels:
Test in all cases: radiometric filter-binding kinase assay, Kinase HotSpot
Conditions in all cases: compound 0.5 µM; ATP 10 µM
[1] = target: DAPK2 (human) (UniProt Q9UIK4)
[2] = target: CSNK2A1 (human) (UniProt P68400)
[3] = target: MAPK8 (human) (UniProt P45983)
[4] = target: MINK1 (human) (UniProt Q8N4C8)
[5] = target: STK25 (human) (UniProt O00506)
[6] = target: STK17A (human) (UniProt Q9UEE5)
[7] = target: MARK4 (human) (UniProt Q96L34)
[8] = target: NEK3 (human) (UniProt P51956)
[9] = system: MKNK1 (human), Q9BUB5 [T385D; 165-205 del]
[10] = target: HIPK1 (human) (UniProt Q86Z02)
[11] = target: NEK7 (human) (UniProt Q8TDX7)
[12] = target: MAP3K2 (human) (UniProt Q9Y2U5)
[13] = target: PRKCH (human) (UniProt P24723)
[14] = system: MAP2K6 (human), P52564 [S207E/T211E]
[15] = target: ULK2 (human) (UniProt Q8IYT8)
[16] = target: CSNK1G2 (human) (UniProt P78368)
[17] = target: PRKACA (human) (UniProt P17612)
[18] = target: TAOK2 (human) (UniProt Q9UL54)
[19] = target: NEK6 (human) (UniProt Q9HC98)
[20] = target: NTRK2 (human) (UniProt Q16620)
[21] = target: LRRK2 (human) (UniProt Q5S007)
[22] = target: ACVR1 (human) (UniProt Q04771)
[23] = target: ADRBK1 (human) (UniProt P25098)
[24] = target: WNK2 (human) (UniProt Q9Y3S1)
[25] = target: ROS1 (human) (UniProt P08922)
[26] = target: MAP4K2 (human) (UniProt Q12851)
[27] = target: STK24 (human) (UniProt Q9Y6E0)
[28] = target: IRAK4 (human) (UniProt Q9NWZ3)
[29] = target: RPS6KB2 (human) (UniProt Q9UBS0)
[30] = target: SRMS (human) (UniProt Q9H3Y6)
[31] = target: FGR (human) (UniProt P09769)
[32] = target: MARK3 (human) (UniProt P27448)
[33] = target: CHEK1 (human) (UniProt O14757)
[34] = target: MAP4K4 (human) (UniProt O95819)
[35] = target: BTK (human) (UniProt Q06187)
[36] = target: GSK3A (human) (UniProt P49840)
[37] = target: CDK4 CCND1 (human) (UniProt P24385+P11802)
[38] = target: PRKCB1 (human) (UniProt P05771)
[39] = target: SRPK2 (human) (UniProt P78362)
[40] = target: DYRK1A (human) (UniProt Q13627)
[41] = target: SIK2 (human) (UniProt Q9H0K1)

Sequence of ACVR1 (human) (Q04771 whole entry, looked up): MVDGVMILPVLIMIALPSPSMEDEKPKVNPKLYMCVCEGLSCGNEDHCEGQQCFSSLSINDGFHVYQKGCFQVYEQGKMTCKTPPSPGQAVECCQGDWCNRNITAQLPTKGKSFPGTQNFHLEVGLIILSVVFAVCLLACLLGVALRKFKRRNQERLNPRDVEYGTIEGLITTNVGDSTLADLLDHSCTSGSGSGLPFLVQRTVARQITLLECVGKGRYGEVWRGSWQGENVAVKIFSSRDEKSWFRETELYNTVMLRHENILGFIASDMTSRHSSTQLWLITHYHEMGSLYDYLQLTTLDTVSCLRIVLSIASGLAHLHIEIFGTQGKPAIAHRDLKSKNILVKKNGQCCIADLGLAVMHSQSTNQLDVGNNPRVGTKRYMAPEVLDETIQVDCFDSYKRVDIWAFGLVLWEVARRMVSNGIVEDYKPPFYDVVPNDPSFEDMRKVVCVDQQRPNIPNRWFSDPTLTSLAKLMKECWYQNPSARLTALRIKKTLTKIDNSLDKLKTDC
Sequence of DAPK2 (human) (Q9UIK4 whole entry, looked up): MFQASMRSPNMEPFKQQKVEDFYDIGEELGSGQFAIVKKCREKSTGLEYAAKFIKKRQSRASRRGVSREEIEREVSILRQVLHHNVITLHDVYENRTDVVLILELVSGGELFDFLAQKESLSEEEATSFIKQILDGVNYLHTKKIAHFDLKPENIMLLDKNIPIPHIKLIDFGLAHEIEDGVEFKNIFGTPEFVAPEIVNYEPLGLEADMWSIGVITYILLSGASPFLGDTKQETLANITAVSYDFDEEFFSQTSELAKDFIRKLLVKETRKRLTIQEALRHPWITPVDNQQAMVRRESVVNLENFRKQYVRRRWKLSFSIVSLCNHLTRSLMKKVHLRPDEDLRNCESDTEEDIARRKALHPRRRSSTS
Sequence of MARK4 (human) (Q96L34 whole entry, looked up): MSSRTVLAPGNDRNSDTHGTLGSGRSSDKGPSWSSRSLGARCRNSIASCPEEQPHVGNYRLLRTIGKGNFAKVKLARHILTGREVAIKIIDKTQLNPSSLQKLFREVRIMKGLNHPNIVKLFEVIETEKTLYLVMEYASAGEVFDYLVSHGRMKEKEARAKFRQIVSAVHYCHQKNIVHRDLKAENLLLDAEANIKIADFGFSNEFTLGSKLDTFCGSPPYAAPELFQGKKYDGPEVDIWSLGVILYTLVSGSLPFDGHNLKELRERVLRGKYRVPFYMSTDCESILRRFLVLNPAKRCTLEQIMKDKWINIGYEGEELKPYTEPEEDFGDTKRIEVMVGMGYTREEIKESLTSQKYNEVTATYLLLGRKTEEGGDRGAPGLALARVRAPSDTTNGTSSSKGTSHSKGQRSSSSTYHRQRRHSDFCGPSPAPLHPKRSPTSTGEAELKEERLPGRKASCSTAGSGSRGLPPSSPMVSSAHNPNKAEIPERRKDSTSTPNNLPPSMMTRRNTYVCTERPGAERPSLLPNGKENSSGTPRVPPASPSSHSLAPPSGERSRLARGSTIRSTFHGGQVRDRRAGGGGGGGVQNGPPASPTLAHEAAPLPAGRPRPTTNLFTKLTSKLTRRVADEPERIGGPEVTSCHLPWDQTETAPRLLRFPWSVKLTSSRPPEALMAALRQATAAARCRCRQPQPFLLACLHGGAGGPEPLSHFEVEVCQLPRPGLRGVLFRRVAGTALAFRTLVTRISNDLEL
Sequence of MARK3 (human) (P27448 whole entry, looked up): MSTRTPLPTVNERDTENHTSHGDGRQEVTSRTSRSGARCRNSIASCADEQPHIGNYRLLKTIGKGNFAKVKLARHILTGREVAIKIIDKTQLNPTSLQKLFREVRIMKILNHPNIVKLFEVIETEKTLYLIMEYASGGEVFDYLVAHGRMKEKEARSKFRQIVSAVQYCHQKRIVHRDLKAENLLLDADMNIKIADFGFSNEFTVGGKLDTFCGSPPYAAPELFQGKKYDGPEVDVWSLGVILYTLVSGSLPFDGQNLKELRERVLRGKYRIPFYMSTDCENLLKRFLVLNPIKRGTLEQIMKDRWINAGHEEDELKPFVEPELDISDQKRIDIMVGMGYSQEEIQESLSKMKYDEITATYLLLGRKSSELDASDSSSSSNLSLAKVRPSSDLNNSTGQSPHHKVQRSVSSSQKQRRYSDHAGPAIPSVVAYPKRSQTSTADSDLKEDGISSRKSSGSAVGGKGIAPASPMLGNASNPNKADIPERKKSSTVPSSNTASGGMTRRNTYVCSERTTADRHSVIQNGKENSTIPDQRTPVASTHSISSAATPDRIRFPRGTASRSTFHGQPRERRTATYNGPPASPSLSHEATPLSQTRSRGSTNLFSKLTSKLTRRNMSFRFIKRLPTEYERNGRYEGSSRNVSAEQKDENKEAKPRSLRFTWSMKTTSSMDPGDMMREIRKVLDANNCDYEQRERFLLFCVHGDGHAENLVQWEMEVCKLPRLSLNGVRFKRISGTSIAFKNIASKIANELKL
Sequence of MINK1 (human) (Q8N4C8 whole entry, looked up): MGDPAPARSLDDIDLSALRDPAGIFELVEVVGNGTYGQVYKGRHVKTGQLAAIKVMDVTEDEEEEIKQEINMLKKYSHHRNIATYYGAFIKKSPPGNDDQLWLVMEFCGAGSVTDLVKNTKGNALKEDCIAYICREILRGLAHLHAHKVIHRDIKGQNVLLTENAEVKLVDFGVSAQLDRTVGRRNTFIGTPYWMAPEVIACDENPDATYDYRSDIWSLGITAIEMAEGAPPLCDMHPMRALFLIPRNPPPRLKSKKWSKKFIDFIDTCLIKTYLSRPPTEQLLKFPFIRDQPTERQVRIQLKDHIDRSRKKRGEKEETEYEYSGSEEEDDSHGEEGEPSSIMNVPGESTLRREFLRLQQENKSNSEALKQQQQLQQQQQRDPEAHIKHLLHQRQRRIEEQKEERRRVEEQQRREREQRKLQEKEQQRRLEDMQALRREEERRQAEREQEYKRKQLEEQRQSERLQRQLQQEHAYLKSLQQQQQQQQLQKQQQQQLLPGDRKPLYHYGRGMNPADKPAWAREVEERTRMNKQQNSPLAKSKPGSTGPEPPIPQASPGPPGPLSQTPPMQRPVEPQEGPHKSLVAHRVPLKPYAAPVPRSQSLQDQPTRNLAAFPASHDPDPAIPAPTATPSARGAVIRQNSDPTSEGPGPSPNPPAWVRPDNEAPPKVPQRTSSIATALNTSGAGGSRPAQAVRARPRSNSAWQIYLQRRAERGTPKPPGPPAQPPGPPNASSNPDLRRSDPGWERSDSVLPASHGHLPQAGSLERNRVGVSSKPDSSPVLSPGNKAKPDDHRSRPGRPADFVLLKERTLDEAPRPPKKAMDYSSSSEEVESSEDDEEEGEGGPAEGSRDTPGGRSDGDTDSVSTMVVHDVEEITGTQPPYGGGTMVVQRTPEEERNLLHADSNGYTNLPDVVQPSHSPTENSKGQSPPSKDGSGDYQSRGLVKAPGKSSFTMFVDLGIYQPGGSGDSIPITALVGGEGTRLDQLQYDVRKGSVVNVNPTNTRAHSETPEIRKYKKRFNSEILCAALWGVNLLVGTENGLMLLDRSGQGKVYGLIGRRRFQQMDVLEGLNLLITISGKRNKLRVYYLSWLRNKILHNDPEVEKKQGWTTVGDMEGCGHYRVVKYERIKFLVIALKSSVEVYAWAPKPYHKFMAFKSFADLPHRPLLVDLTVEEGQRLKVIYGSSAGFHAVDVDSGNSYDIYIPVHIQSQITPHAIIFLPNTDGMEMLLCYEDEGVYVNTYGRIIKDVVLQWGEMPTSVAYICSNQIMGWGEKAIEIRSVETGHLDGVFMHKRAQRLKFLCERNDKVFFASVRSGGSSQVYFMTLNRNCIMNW
Sequence of HIPK1 (human) (Q86Z02 whole entry, looked up): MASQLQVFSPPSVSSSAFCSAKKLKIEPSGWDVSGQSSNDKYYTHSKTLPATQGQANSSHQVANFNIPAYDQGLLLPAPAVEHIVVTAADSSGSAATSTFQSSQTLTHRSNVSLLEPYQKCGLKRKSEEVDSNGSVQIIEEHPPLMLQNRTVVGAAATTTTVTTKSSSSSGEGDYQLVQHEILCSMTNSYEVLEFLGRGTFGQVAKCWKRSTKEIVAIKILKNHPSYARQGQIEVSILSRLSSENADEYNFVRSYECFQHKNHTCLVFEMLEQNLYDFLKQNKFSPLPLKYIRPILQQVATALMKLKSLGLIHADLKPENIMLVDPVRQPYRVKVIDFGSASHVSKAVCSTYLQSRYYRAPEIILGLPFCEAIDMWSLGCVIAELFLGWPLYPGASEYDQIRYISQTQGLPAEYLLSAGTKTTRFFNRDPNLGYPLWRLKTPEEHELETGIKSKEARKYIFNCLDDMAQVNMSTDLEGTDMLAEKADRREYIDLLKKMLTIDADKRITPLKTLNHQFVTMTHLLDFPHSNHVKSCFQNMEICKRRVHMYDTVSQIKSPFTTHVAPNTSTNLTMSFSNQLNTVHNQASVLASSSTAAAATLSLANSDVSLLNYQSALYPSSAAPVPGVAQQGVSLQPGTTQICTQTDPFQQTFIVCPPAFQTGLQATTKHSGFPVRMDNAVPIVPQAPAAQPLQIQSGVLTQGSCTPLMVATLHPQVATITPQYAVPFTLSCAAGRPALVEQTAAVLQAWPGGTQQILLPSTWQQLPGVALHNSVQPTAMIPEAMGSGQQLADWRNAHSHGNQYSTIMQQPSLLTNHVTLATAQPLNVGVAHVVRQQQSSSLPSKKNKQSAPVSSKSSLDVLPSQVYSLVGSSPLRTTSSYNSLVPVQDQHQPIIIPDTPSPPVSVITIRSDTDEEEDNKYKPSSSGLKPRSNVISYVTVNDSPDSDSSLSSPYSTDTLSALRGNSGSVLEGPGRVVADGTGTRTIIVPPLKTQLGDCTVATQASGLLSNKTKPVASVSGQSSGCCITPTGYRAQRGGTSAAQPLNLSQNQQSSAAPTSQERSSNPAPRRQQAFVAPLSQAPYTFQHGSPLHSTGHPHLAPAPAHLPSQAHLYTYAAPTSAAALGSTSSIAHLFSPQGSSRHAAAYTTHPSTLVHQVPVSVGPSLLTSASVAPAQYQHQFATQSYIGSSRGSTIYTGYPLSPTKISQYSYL

residual activity [1]: 105%
residual activity [2]: 101%
residual activity [3]: 88.3%
residual activity [4]: 29.2%
residual activity [5]: 55%
residual activity [6]: 62.9%
residual activity [7]: 3.16%
residual activity [8]: 107%
residual activity [9]: 92.7%
residual activity [10]: 101%
residual activity [11]: 101%
residual activity [12]: 30.2%
residual activity [13]: 20.4%
residual activity [14]: 91.4%
residual activity [15]: 95.7%
residual activity [16]: 98.3%
residual activity [17]: 34%
residual activity [18]: 86.2%
residual activity [19]: 110%
residual activity [20]: 12.8%
residual activity [21]: 8.46%
residual activity [22]: 95.5%
residual activity [23]: 102%
residual activity [24]: 111%
residual activity [25]: 6.53%
residual activity [26]: 5.17%
residual activity [27]: 39.1%
residual activity [28]: 71.5%
residual activity [29]: 55.9%
residual activity [30]: 97.6%
residual activity [31]: 17.4%
residual activity [32]: 4.76%
residual activity [33]: 53%
Structure (SMILES): CO[C@@H]1[C@H](N(C)C(=O)c2ccccc2)C[C@H]2O[C@]1(C)n1c3ccccc3c3c4c(c5c6ccccc6n2c5c31)C(=O)NC4

Structure (SMILES): CC(C)(C)c1cc(C=C(C#N)C#N)cc(Br)c1O
residual activity [1]: 108%
residual activity [2]: 99.3%
residual activity [3]: 90.4%
residual activity [34]: 96.2%
residual activity [35]: 101%
residual activity [4]: 111%
residual activity [5]: 102%
residual activity [36]: 104%
residual activity [6]: 92.3%
residual activity [7]: 103%
residual activity [8]: 96.6%
residual activity [9]: 95.9%
residual activity [10]: 104%
residual activity [11]: 89.5%
residual activity [12]: 93.7%
residual activity [13]: 100%
residual activity [14]: 107%
residual activity [15]: 103%
residual activity [16]: 100%
residual activity [37]: 115%
residual activity [17]: 102%
residual activity [18]: 96.5%
residual activity [38]: 102%
residual activity [19]: 111%
residual activity [20]: 90.9%
residual activity [21]: 109%
residual activity [22]: 102%
residual activity [39]: 109%
residual activity [23]: 83.7%
residual activity [24]: 126%
residual activity [25]: 93.2%
residual activity [26]: 113%
residual activity [40]: 95.4%
residual activity [27]: 96.3%
residual activity [28]: 182%
residual activity [41]: 115%
residual activity [29]: 102%
residual activity [30]: 98.4%
residual activity [31]: 75.4%
residual activity [32]: 105%
residual activity [33]: 100%

Structure (SMILES): O=C1c2ccccc2-c2nc3nnnn3nc21
residual activity [1]: 83.4%
residual activity [2]: 101%
residual activity [3]: 78.3%
residual activity [34]: 89%
residual activity [35]: 90.6%
residual activity [4]: 91.2%
residual activity [5]: 101%
residual activity [36]: 88.7%
residual activity [6]: 83.8%
residual activity [7]: 88.1%
residual activity [8]: 111%
residual activity [9]: 79.3%
residual activity [10]: 99.3%
residual activity [11]: 83.6%
residual activity [12]: 83%
residual activity [13]: 49.2%
residual activity [14]: 85.7%
residual activity [15]: 105%
residual activity [16]: 82.2%
residual activity [37]: 59.9%
residual activity [17]: 76.6%
residual activity [18]: 91.9%
residual activity [38]: 83.1%
residual activity [19]: 96.3%
residual activity [20]: 29.4%
residual activity [21]: 85.6%
residual activity [22]: 93.1%
residual activity [39]: 95.8%
residual activity [23]: 106%
residual activity [24]: 143%
residual activity [25]: 91.1%
residual activity [26]: 79.4%
residual activity [40]: 95%
residual activity [27]: 101%
residual activity [28]: 96.9%
residual activity [41]: 106%
residual activity [29]: 86.3%
residual activity [30]: 6.33%
residual activity [31]: 79.8%
residual activity [32]: 78.1%
residual activity [33]: 112%
